Measurements from patent publication US20080255031A1, “METHOD FOR ENHANCING INSULIN SECRETION” (priority 2007, published 2008).
≈ marks a conversion by molar mass, not a printed value. Read-outs that look alike come from different tables or passages of the source. One block for each molecule: values may come before it.

Experiments:
IKs [1] = details: Zygmunt et al. (2002); read-out: IC50 value (current not named); cited from earlier work
[2] = patients; U.S. Patent Publication No. 2004/0063717; cited from earlier work
[3] = test system: rat isolated pancreatic islets; experiment: Glucose stimulated insulin secretion (GSIS) in rat isolated pancreatic islets; type: cell-based
Experimental: Rat islets were isolated from male Sprague-Dawley (SD) rats (8-12 weeks old, n=6) as described by Yang Z. et al. […] Insulin secretion assay was performed essentially as previously described by Liu D. et al. Steroids 2006, 71, 691-699. […] Insulin secreted in experimental samples was measured by a RIA kit (Mercodia, N.C.). All insulin secretion data in the present study were normalized to insulin secretion per islet. There was a biphasic response for insulin secretion to ranolazine.

CYP2D6 [4] = biological target: T1, CYP2D6 (Homo sapiens, UniProt P10635); experiment: biochemical
T1 sequence (P10635 whole entry): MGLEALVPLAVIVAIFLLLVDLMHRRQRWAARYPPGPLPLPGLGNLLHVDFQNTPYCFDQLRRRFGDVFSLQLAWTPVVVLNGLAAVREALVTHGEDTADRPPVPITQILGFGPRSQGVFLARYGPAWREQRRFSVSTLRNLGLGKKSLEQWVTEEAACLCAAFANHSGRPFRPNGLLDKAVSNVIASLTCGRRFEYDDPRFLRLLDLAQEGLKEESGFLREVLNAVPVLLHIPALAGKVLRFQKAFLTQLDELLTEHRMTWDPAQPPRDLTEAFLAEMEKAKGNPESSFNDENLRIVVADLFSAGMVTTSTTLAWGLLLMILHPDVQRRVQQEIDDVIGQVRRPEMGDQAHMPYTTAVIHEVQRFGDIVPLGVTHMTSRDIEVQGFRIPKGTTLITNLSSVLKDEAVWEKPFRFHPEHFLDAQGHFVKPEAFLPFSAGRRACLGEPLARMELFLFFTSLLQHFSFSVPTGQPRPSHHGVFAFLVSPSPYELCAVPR

CYP2D6 [5] = biological target: T1, CYP2D6; experiment: Inhibitory effects on CYP2D6 in extensive metabolizers of dextromethorphan; type: in vivo; set-up: evaluated in extensive metabolizers of dextromethorphan; from tissue; host or cells: in vivo, subjects who are extensive metabolizers
IKr [6] = biological target: T2, IKr (Canis lupus familiaris, UniProt Q9TSZ3); set-up: Whole cell currents were recorded from isolated canine left ventricular midmyocrdial cells; endogenous in cells; host or cells: isolated canine left ventricular midmyocardial cells; details: Zygmunt et al. (2002); cited from earlier work
T2 sequence (Q9TSZ3 1-1158): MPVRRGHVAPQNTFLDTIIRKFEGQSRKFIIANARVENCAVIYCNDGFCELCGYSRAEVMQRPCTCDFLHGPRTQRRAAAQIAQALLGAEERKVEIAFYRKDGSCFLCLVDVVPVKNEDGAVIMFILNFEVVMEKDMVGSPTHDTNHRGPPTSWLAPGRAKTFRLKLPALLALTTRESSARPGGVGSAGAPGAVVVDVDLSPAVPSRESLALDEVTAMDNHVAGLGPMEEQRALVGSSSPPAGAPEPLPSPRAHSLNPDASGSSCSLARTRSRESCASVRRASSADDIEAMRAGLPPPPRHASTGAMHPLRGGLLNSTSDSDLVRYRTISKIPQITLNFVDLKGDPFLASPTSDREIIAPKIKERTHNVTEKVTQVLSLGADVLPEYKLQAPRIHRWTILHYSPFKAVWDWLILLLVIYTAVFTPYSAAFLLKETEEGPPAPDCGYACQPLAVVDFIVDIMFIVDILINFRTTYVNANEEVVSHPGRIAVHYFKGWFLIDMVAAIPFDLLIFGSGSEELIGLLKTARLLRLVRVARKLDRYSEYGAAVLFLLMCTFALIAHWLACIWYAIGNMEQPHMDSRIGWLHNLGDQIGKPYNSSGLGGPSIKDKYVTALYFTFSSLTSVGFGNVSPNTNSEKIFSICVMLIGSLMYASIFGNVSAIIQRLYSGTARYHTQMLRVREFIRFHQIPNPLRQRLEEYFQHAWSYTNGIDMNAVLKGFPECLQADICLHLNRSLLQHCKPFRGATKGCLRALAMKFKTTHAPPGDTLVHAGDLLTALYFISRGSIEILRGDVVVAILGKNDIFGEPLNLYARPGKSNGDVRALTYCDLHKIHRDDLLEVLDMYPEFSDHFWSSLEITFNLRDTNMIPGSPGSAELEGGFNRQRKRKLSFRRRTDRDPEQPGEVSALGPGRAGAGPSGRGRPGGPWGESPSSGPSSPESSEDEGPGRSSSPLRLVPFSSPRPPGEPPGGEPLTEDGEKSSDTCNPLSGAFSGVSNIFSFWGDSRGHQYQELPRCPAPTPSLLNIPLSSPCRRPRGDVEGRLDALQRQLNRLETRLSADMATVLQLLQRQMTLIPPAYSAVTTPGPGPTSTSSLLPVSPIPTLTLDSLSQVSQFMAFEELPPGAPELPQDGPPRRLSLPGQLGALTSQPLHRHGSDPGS

[7] = Solubility in aqueous solutions by pH (Table 1); type: physicochemical
IKr [8] = biological target: T2, IKr; experiment: cell-based
Experimental: (§1) Whole cell currents were recorded from isolated canine left ventricular midmyocrdial cells at 37° C. IKr and IKs were recorded during standard pulse protocols. Action potentials recorded at basic cycle lengths (BCL) of 300 and 2000 ms were used as command waveforms during voltage claim to measure late INa. Enantiomeric effects were determined at concentrations of 3, 10, and 30 μM.
(§2) Late INa was evaluated at two voltages during the plateau and final repolarization of an action potential voltage claims.

IKs [9] = experiment: Whole cell IKs in isolated canine left ventricular midmyocardial cells; type: cell-based; details: 30 μM
Experimental: as §1, §2

[10] = test system: human isolated pancreatic islets; experiment: GSIS in human isolated pancreatic islets; type: cell-based; details: one donor, 30 min incubation (Example 4, FIG. 4)
Experimental: Rat islets were isolated from male Sprague-Dawley (SD) rats (8-12 weeks old, n=6) as described by Yang Z. et al. […] Insulin secretion assay was performed essentially as previously described by Liu D. et al. Steroids 2006, 71, 691-699. […] Insulin secreted in experimental samples was measured by a RIA kit (Mercodia, N.C.). […] The procedure used for the human islets was the same as the procedure used in Example 1 above, except that the incubation period was 30 minutes, instead of the 60 minutes used in Example 1.

IC50 (CYP2D6 [4]): 324 µM
inhibition of CYP2D6 by ranolazine and/or metabolites (CYP2D6 [5]): partially inhibit CYP2D6
USP Solubility Class ([7]; Solution pH 4.81): Freely Soluble
USP Solubility Class ([7]; Solution pH 4.89): Soluble
USP Solubility Class ([7]; Solution pH 4.90): Soluble
USP Solubility Class ([7]; Solution pH 5.04): Soluble
USP Solubility Class ([7]; Solution pH 5.35): Sparingly Soluble
USP Solubility Class ([7]; Solution pH 5.82): Slightly soluble
USP Solubility Class ([7]; Solution pH 6.46): Slightly soluble
USP Solubility Class ([7]; Solution pH 6.73): Very slightly soluble
USP Solubility Class ([7]; Solution pH 7.08): Very slightly soluble
USP Solubility Class ([7]; Solution pH 7.59 (unbuffered water)): Very slightly soluble
Solubility ([7]; Solution pH 7.79): 170 µg/mL (≈ 398 µM)
USP Solubility Class ([7]; Solution pH 7.79): Very slightly soluble
USP Solubility Class ([7]; Solution pH 12.66): Very slightly soluble
Compound: COc1ccccc1OCC(O)CN1CCN(CC(=O)Nc2c(C)cccc2C)CC1 (racemic) [ranolazine, (±)-N-(2,6-dimethylphenyl)-4-[2-hydroxy-3-(2-methoxyphenoxy)propyl]-1-piperazine-acetamide]
IC50 (IKs [1]): > 100 µM
HbA1c levels [2]: reduced HbA1c levels
increase of insulin secretion (GSIS) ([3]; 1 nM to 1 μM, concentration-dependent, 20 mM glucose, 60 min): 2-5 fold
effect on GSIS ([3]; 10 μM, compared with 20 mM glucose alone): no significant effect on GSIS
IC50 (IKr [6]): 11 µM

Compound: COc1ccccc1OC[C@H](O)CN1CCN(CC(=O)Nc2c(C)cccc2C)CC1 [R-ranolazine, (R)-(+)-N-(2,6-dimethylphenyl)-4-[2-hydroxy-3-(2-methoxyphenoxy)-propyl]-1-piperazineacetamide]
IC50 (IKr [8]): 28 ± 4 µM
IKs reduced (IKs [9]): 5%
increasing the secretion of insulin in response to glucose [10]: significantly more effective

Compound: COc1ccccc1OC[C@@H](O)CN1CCN(CC(=O)Nc2c(C)cccc2C)CC1 [S-ranolazine, (S)-(−)-N-(2,6-dimethylphenyl)-4-[2-hydroxy-3-(2-methoxyphenoxy)-propyl]-1-piperazineacetamide]
IC50 (IKr [8]): 10 ± 2 µM
IKs reduced (IKs [9]): 27%
